In series [1] the test system is pelvic nerve stimulation-induced elevation of intravesical pressure. Description: Test Example 4: effect on pelvic nerve stimulation-induced elevation of intravesical pressure in anesthetized rats. The format is in vivo, rat. Particulars: 3 mg/kg intravenous; maximum effect within one hour; anesthetized SD female rats; pre-treatment = 100%. The protocol: Test Example 4: Effect on Pelvic Nerve Stimulation-Induced Elevation of Intravesical Pressure in Anesthetized Rats
The effect of the Example compounds of the present invention in the pelvic nerve electrical stimulation-induced elevation of intravesical pressure using rats as an action of nerve stimulation-dependent bladder contraction in vivo was measured by the following method. That is, SD female rats (Japan SLC, Inc.) were used and its lower abdomen was dissected at the midline under pentobarbital anesthesia (50 mg/kg ip). After ligating and cutting the ureter on both sides, a cannula (PE-50) for measuring the intravesical pressure was inserted into the bladder from the external urethral opening and fixed by a clip. After injecting about 200 μL of saline through the cannula that had been inserted into the bladder, the other side was connected to a pressure transducer to measure the intravesical pressure. Under a stereoscopic microscope observation, the pelvic nerve in the vicinity of the bladder was peeled and an electrode for nerve stimulation (unique Medical) was placed. The abdominal cavity was filled with mineral oil (MP BIOMEDICALS). After placing in a post-operative stabilization period, the pelvic nerve was subjected to electrical stimulation (stimulation voltage: 10 V, stimulation frequency: 8 Hz, pulse width: 0.3 msec, and stimulation time: 10 seconds) to elicit the elevation of intravesical pressure, using an electrical stimulator (Nihon Kohden). By repeating the electrical stimulation at an interval of 2 minutes while adjusting the voltage, the voltage was adjusted to elicit about 50% to 70% elevation of intravesical pressure elicited at 10 V. Thereafter, by repeating the electrical stimulation at an interval of 10 minutes, the increase in the intravesical pressure by electrical stimulation was stabilized three times or more, and the test substance (an administration amount of 3 mg/kg) was then administered from the catheter detained in the vein at a volume of 1 mL/kg, thus measuring an effect of the elevation of the intravesical pressure of the test substance for 1 hour. The test substance was dissolved in water supplemented with 10% dimethylsulfoxide and 10% Cremophor.
The response was applied to a personal computer through a PowerLab (registered trademark) and analyzed by LabChart (registered trademark). The AUC of each elevation of the intravesical pressure was calculated, the intravesical pressure elevation rate (% of pre) after the treatment with the test substance was calculated by taking an average value of the values measured three times before the treatment with the test substance as 100%, and the maximum effect during a period within one hour after administration of the compound was considered as the effect of the test substance.
The elevation rates (% of pre) of the intravesical pressure when some Example compounds were administered at 3 mg/kg are shown in Table 4.

In series [2] the target is human muscarinic M3 receptor (Homo sapiens, UniProt P20309).

Where a name gives a salt, the structure may show the parent alone.

human muscarinic M3 receptor, sequence (P20309 whole entry): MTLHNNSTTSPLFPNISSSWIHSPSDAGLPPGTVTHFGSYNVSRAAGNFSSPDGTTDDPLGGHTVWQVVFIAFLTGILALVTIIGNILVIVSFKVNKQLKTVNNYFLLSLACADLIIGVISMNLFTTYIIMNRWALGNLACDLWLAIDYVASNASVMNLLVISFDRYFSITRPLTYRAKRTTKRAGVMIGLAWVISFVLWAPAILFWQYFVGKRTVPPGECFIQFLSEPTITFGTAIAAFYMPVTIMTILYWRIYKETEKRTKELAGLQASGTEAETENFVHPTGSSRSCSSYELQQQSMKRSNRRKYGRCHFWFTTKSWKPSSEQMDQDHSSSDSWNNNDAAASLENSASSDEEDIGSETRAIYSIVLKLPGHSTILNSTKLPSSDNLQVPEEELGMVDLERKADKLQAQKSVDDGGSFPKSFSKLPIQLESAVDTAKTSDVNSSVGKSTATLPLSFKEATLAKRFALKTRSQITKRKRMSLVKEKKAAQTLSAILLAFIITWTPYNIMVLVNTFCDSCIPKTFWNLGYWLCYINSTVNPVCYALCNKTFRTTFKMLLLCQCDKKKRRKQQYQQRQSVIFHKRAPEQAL

In the case of `C[C@@H]1CCCN1Cc1sc(NC(=O)c2cnc(N3CCN(CCC(=O)O)C[C@H]3C)cn2)nc1-c1cc(C(F)(F)F)cs1` [Example 3, 3-[(3R)-3-methyl-4-{5-[(5-{[(2R)-2-methylpyrrolidin-1-yl]methyl}-4-[4-(trifluoromethyl)thiophen-2-yl]-1,3-thiazol-2-yl)carbamoyl]pyrazin-2-yl}piperazin-1-yl]propanoic acid dihydrochloride], the “Increase rate (% of pre) of intravesical pressure” value in series [1] is reported as 251 % of pre. Besides, in series [2], the “muscarinic M3 receptor-positive allosteric modulator activity, 1 μM (-fold shift)” value is recorded as 101 -fold shift and the “muscarinic M3 receptor-positive allosteric modulator activity, 10 μM (-fold shift)” value is 253 -fold shift.
The corresponding values for `COc1ccc(-c2nc(NC(=O)c3cnc(N4CCN(CCC(=O)O)[C@@H](C)C4)cn3)sc2CN2CCC[C@H]2C)cc1C(F)(F)F` [Example 10] are 145 % of pre, 21 -fold shift and 87 -fold shift.
For `C[C@@H]1CCCN1Cc1sc(NC(=O)c2cnc(N3CCN(CCC(=O)O)CC3)cn2)nc1-c1cc(Cl)cc(C(F)(F)F)c1` [Example 11], the “Increase rate (% of pre) of intravesical pressure” value in series [1] was 132 % of pre. Further, in series [2], the “muscarinic M3 receptor-positive allosteric modulator activity, 1 μM (-fold shift)” value is recorded as 33 -fold shift and the “muscarinic M3 receptor-positive allosteric modulator activity, 10 μM (-fold shift)” value is 226 -fold shift.
The corresponding values for `C[C@@H]1CCCN1Cc1sc(NC(=O)c2cnc(N3CCN(CC(=O)O)CC3)cn2)nc1-c1cc(Cl)cc(C(F)(F)F)c1` [Example 13] are 132 % of pre, 43 -fold shift and 326 -fold shift.
For `C[C@@H]1CCCN1Cc1sc(NC(=O)c2cnc(N3CCN(CCC(=O)O)CC3)cn2)nc1-c1ccc(Cl)c(C(F)(F)F)c1` [Example 15], the “Increase rate (% of pre) of intravesical pressure” value in series [1] is listed as 142 % of pre. In series [2], the “muscarinic M3 receptor-positive allosteric modulator activity, 1 μM (-fold shift)” value is recorded as 31 -fold shift and the “muscarinic M3 receptor-positive allosteric modulator activity, 10 μM (-fold shift)” value is 159 -fold shift.
For the compound `C[C@@H]1CCCN1Cc1sc(NC(=O)c2cnc(N3CCN(CCCC(=O)O)CC3)cn2)nc1-c1cc(F)cc(C(F)(F)F)c1` [Example 21], the “Increase rate (% of pre) of intravesical pressure” value in series [1] is recorded as 155 % of pre. Also, in series [2], the “muscarinic M3 receptor-positive allosteric modulator activity, 1 μM (-fold shift)” value is 25 -fold shift and the “muscarinic M3 receptor-positive allosteric modulator activity, 10 μM (-fold shift)” value is 149 -fold shift.
Take `CC[C@@H]1CCCN1Cc1sc(NC(=O)c2cnc(N3CCN(CCC(=O)O)C[C@@H]3C)cn2)nc1-c1cc(Cl)cs1` [Example 28]: the “Increase rate (% of pre) of intravesical pressure” value in series [1] is given as 184 % of pre. For the same compound, in series [2], the “muscarinic M3 receptor-positive allosteric modulator activity, 1 μM (-fold shift)” value is 36 -fold shift and the “muscarinic M3 receptor-positive allosteric modulator activity, 10 μM (-fold shift)” value is 108 -fold shift.
`C[C@@H]1CCCN1Cc1sc(NC(=O)c2cnc(N3CCN(CCC(=O)[O-])CC3)cn2)nc1-c1cc(C#N)cc(C(F)(F)F)c1.[Na+]` [Example 34]: the “Increase rate (% of pre) of intravesical pressure” value in series [1] was 134 % of pre.
As for `CC[C@@H]1CCCN1Cc1sc(NC(=O)c2cnc(N3CCN(CCC(=O)O)CC3)cn2)nc1-c1ccc(OC)c(C(F)(F)F)c1` [Example 42], in series [1], the “Increase rate (% of pre) of intravesical pressure” value is 149 % of pre. Moreover, in series [2], the “muscarinic M3 receptor-positive allosteric modulator activity, 1 μM (-fold shift)” value is 39 -fold shift and the “muscarinic M3 receptor-positive allosteric modulator activity, 10 μM (-fold shift)” value is 141 -fold shift.
With `COc1c(Cl)cc(-c2nc(NC(=O)c3cnc(N4CCN(CCC(=O)O)CC4)cn3)sc2CN2CCC[C@H]2C)cc1Cl` [Example 43], the “Increase rate (% of pre) of intravesical pressure” value in series [1] is reported as 125 % of pre. Besides, in series [2], the “muscarinic M3 receptor-positive allosteric modulator activity, 1 μM (-fold shift)” value is recorded as 76 -fold shift and the “muscarinic M3 receptor-positive allosteric modulator activity, 10 μM (-fold shift)” value is 224 -fold shift.
The corresponding values for `Cc1cc(OC(F)(F)F)cc(-c2nc(NC(=O)c3cnc(N4CCN(CCC(=O)O)CC4)cn3)sc2CN2CCC[C@H]2C)c1` [Example 46] are 126 % of pre, 29 -fold shift and 199 -fold shift.
Consider `Cc1cc(OC(F)(F)F)cc(-c2nc(NC(=O)c3cnc(N4CCN(C(C)C(=O)O)CC4)cn3)sc2CN2CCC[C@H]2C)c1` (some centres unmarked) [Example 48], for which the “Increase rate (% of pre) of intravesical pressure” value in series [1] is recorded as 121 % of pre. For the same compound, in series [2], the “muscarinic M3 receptor-positive allosteric modulator activity, 1 μM (-fold shift)” value is 27 -fold shift and the “muscarinic M3 receptor-positive allosteric modulator activity, 10 μM (-fold shift)” value is 113 -fold shift.
On to `C[C@@H]1CCCN1Cc1sc(NC(=O)c2cnc(N3CCN(CCC(=O)O)CC3)cn2)nc1-c1cc(F)cc(C(F)(F)F)c1` [Example 49], for which the “Increase rate (% of pre) of intravesical pressure” value in series [1] is 172 % of pre. Further, in series [2], the “muscarinic M3 receptor-positive allosteric modulator activity, 1 μM (-fold shift)” value is 67 -fold shift and the “muscarinic M3 receptor-positive allosteric modulator activity, 10 μM (-fold shift)” value is reported as 224 -fold shift.
The like results for `C[C@@H]1CCCN1Cc1sc(NC(=O)c2cnc(N3CCN(CCC(=O)O)CC3)cn2)nc1-c1cc(Cl)cs1` [Example 50] were, in that order, 207 % of pre, 108 -fold shift and 190 -fold shift.
On to `C[C@@H]1CCCN1Cc1sc(NC(=O)c2cnc(N3CCN(CC(=O)O)CC3)cn2)nc1-c1cc(Cl)cs1` [Example 51], for which the “Increase rate (% of pre) of intravesical pressure” value in series [1] was 223 % of pre. Moreover, in series [2], the “muscarinic M3 receptor-positive allosteric modulator activity, 1 μM (-fold shift)” value was 102 -fold shift and the “muscarinic M3 receptor-positive allosteric modulator activity, 10 μM (-fold shift)” value is reported as 287 -fold shift.
Turning to `COc1cc(-c2nc(NC(=O)c3cnc(N4CCN(CCC(=O)O)CC4)cn3)sc2CN2CCC[C@H]2C)cc(C(F)(F)F)c1` [Example 52], the “Increase rate (% of pre) of intravesical pressure” value in series [1] is given as 129 % of pre. Also, in series [2], the “muscarinic M3 receptor-positive allosteric modulator activity, 1 μM (-fold shift)” value is listed as 36 -fold shift and the “muscarinic M3 receptor-positive allosteric modulator activity, 10 μM (-fold shift)” value is given as 196 -fold shift.
The corresponding values for `C[C@@H]1CCCN1Cc1sc(NC(=O)c2cnc(N3CCN(CCC(=O)O)CC3)cn2)nc1-c1ccc(F)c(C(F)(F)F)c1` [Example 60] are 130 % of pre, 33 -fold shift and 235 -fold shift.
On to `C[C@@H]1CCCN1Cc1sc(NC(=O)c2cnc(N3CCN(CC(=O)O)CC3)cn2)nc1-c1ccc(F)c(C(F)(F)F)c1` [Example 61], for which the “Increase rate (% of pre) of intravesical pressure” value in series [1] is recorded as 129 % of pre. Moreover, in series [2], the “muscarinic M3 receptor-positive allosteric modulator activity, 1 μM (-fold shift)” value is reported as 35 -fold shift and the “muscarinic M3 receptor-positive allosteric modulator activity, 10 μM (-fold shift)” value is recorded as 229 -fold shift.
Turning to `CC(C(=O)O)N1CCN(c2cnc(C(=O)Nc3nc(-c4cc(F)cc(C(F)(F)F)c4)c(CN4CCC[C@H]4C)s3)cn2)CC1` (some centres unmarked) [Example 64], the “Increase rate (% of pre) of intravesical pressure” value in series [1] is recorded as 135 % of pre. Moreover, in series [2], the “muscarinic M3 receptor-positive allosteric modulator activity, 1 μM (-fold shift)” value was 23 -fold shift and the “muscarinic M3 receptor-positive allosteric modulator activity, 10 μM (-fold shift)” value was 128 -fold shift.
For `CC[C@@H]1CCCN1Cc1sc(NC(=O)c2cnc(N3CCN(CCC(=O)O)CC3)cn2)nc1-c1cccc(C(F)(F)F)c1` [Example 65], the “Increase rate (% of pre) of intravesical pressure” value in series [1] is listed as 128 % of pre. Further, in series [2], the “muscarinic M3 receptor-positive allosteric modulator activity, 1 μM (-fold shift)” value is on record as 24 -fold shift and the “muscarinic M3 receptor-positive allosteric modulator activity, 10 μM (-fold shift)” value is listed as 90 -fold shift.
On to `C[C@@H]1CCCN1Cc1sc(NC(=O)c2cnc(N3CCN(CCC(=O)O)CC3)cn2)nc1-c1cc(C2CC2)cc(C(F)(F)F)c1` [Example 67], for which the “Increase rate (% of pre) of intravesical pressure” value in series [1] is 126 % of pre. In addition, in series [2], the “muscarinic M3 receptor-positive allosteric modulator activity, 1 μM (-fold shift)” value is 40 -fold shift and the “muscarinic M3 receptor-positive allosteric modulator activity, 10 μM (-fold shift)” value is reported as 114 -fold shift.
For the compound `COc1c(F)cc(-c2nc(NC(=O)c3cnc(N4CCN(CCC(=O)O)CC4)cn3)sc2CN2CCC[C@H]2C)cc1C(F)(F)F` [Example 72], the “Increase rate (% of pre) of intravesical pressure” value in series [1] is on record as 155 % of pre. For the same compound, in series [2], the “muscarinic M3 receptor-positive allosteric modulator activity, 1 μM (-fold shift)” value was 31 -fold shift and the “muscarinic M3 receptor-positive allosteric modulator activity, 10 μM (-fold shift)” value is reported as 152 -fold shift.
With `CCC[C@@H]1CCCN1Cc1sc(NC(=O)c2cnc(N3CCN(CCC(=O)[O-])CC3)cn2)nc1-c1cccc(C(F)(F)F)c1.[Na+]` [Example 124], the “Increase rate (% of pre) of intravesical pressure” value in series [1] is 143 % of pre.

The record behind these values is patent US9951060B2, “2-acylaminothiazole derivative or salt thereof” (ASTELLAS PHARMA INC., priority 2014, dated 2018).
